Measurements taken from patent US12728111B2, “Electrophilic compounds and electrophilic prodrugs for treating aneurysm” (University of Pittsburgh—Of the Commonwealth System of …, priority 2020, dated 2026).

Tests used:
[1] = tested on: Vcam1, MCP1, Icam1 gene expression in suprarenal aorta; assay: Real-time PCR gene expression in mouse suprarenal aorta; assay type: in vivo
Description: (§1) FIG. 2. […] (A) Quantification of gene expression levels in the mice suprarenal aorta region by real-time PCR (n=3 to 4). (B, C) Serum cytokines levels measured by ELISA (n=8 to 11). (D) FACS of single cells isolated from the mice suprarenal aorta region. Each sample is the pool of cells from three mice (n=3). (E, F) Quantification of the percentage of CD45+ leukocytes and CD64+, CD11c+M1-like macrophages in total cells from the FACS analysis. Ordinary one-way ANOVA followed by Tukey's test was performed for (A), (E) and (F). For ELISA in (B) and (C), to avoid the effect of the non-detected data point, a non-parametric Kruskal-Wallis test followed by Dunn's multiple comparisons was performed by adding zero to the missing data point. Data presented as mean±SEM. A p<0.05 for both the main test and post hoc test was considered statistically significant.
Ten weeks old male C57BL/6J mice were purchased from The Jackson Laboratory. The murine AAA model induced by AngII/PCSK9 gain-of-function mutation is well-established. After acclimation for 1 week, mice were fed a western diet (TD.88137, Envigo) and intraperitoneally injected with 2×1011 genomic copies of AAV-PCSK9.D377Y (AAV serotype 8, Penn Vector Core). Two weeks later, each mouse was subcutaneously implanted with two osmotic pumps (Model #2004, Alzet). One was loaded with AngII (#H-1706, Bachem), releasing at a rate of 1,500ng/kg/min, while the other one was loaded with PEG-400, OA or NO2—OA at a delivery rate of 5 mg/kg/day for OA or NO2—OA. After 4-weeks infusion, mice were euthanized and the maximal outer diameter of the suprarenal aorta was assessed with a digital caliper by a third person blinded to the treatment. Suprarenal aortas with a maximal diameter ≥50% larger than standard size (≥1.2 mm) were considered as abdominal aortic aneurysms. […]
Mice suprarenal aortas were collected after the measurement of their diameter. […] Gene expression was quantified in triplicates by quantitative real-time PCR (qPCR) using IQ SYBR Green Supermix (#1708882, Bio-Rad) with the indicated gene primers.

circulating MCP1 and IL6 = assay: Circulating cytokine ELISA in AAA model mice; assay type: in vivo, mouse
Description: as §1
MCP1, TNFα and IL6 levels in mouse plasma were measured by ELISA performed by the Cancer Center Immunology Core at the University of Michigan.

RAW 264.7 cells = assay: Boyden chamber transwell migration assay; assay type: cell-based, murine; conditions: in the presence of Ang II; 2.5 μM, 12 hours
Procedure: HUVECs were seeded in the lower chambers of the Transwells (#CLS3464, Sigma-Aldrich) and cultured up to 80% confluence before treatment with or without AngII (100 nM) for 6 hours in OptiMEM I reduced serum medium (#31985-070, Gibco). RAW 264.7 cells starved with OptiMEM I overnight were seeded (2×10^5 per well) in the upper chambers of the transwells and treated with vehicle (ethanol), OA (2.5 μM) or NO2—OA (2.5 μM) for additional 12 hours. Cells on the upper chamber were then removed by gently scraping with a cotton swab, and the membranes were fixed in 4% PFA for 15 min and stained with 0.1% crystal violet for 15 min at room temperature. Images were acquired by AMG Evos XI Core Imaging System. Quantification of the positively stained area was performed using Image J v1.52s.

[2] = tested on: oxLDL-induced Il1b and Mmp9 expression in BMDMs; assay: Real-time PCR of oxLDL-induced pro-inflammatory genes in BMDMs; assay type: cell-based, mouse; conditions: BMDMs, vs control
Procedure: FIG. 3. NO2—OA prevents oxLDL-induced NFκB activation and pro-inflammatory cytokine production. Primary BMDMs were pretreated with vehicle, OA (2.5 μM) or NO2—OA (2.5 μM) for 1 h, followed by treatment of oxLDL (50 to 100 μg/ml) for the indicated times. (A, B) Nuclear (A) and cytoplasmic protein (B) fractions were isolated 1 h after oxLDL treatment and subjected to western blot with antibodies against p65, lamin a/c (nuclear marker) and GAPDH (cytosolic marker). Representative western blot images of three independent experiments are shown. (C) Quantification of the p65 nuclear to cytoplasmic ratio by image studio (normalized by the internal control, n=3). (D-F) Following 8 h of oxLDL treatment, levels of IL6, MCP1 and TNFα in the cell medium were measured by ELISA (n=4). (G) Real-time PCR quantification of gene expression levels of IL1b and Mmp9 in total mRNA extracted from the BMDMs. (C) Ordinary one-way ANOVA followed by Tukey's test was performed. As of (D-F), the basal level contains several non-detectable values, so ordinary one-way ANOVA followed by correction of FDR were performed for the oxLDL-treated groups only. Ordinary one-way ANOVA followed by Tukey's test was performed for (G). Data presented as mean±SEM. A p<0.05 for both the main test and post hoc test was considered statistically significant.
Mice suprarenal aortas were collected after the measurement of their diameter. Human aortic aneurysm samples were obtained from the Department of Cardiac Surgery at the University of Michigan. Samples from humans and mice were snap-frozen in liquid nitrogen for later processing. RNA from tissue was extracted using TRIzol (#15596018, Invitrogen). RNA from cells was isolated with the RNeasy Mini Kit (#74106, QIAGEN). SuperScript™ III First-Strand Synthesis System (#18080051, Invitrogen) was used to reverse-transcribe mRNA into cDNA. Gene expression was quantified in triplicates by quantitative real-time PCR (qPCR) using IQ SYBR Green Supermix (#1708882, Bio-Rad) with the indicated gene primers.

MMP9 = assay: Gelatin zymography in BMDMs, MMP9; assay type: cell-based, mouse; conditions: 2.5 μM, 12 h
Procedure: (§2) FIG. 4. NO2—OA inhibits PGE2-dependent EP4 cAMP downstream signaling. (A) Three parameters nonlinear regression of EP4 global fitting dose-response curve. […] (B) HTRF assay of cAMP-Gs coupled receptor. […] (D) Representative figure of gelatin zymography indicating MMP 2/9 activity. BMDMs were incubated with L-902,688 (100 nM) plus vehicle, OA (2.5 μM) or NO2—OA (2.5 μM) for 12 h, and MMP 2&9 activity was measured by gelatin zymography. For (A) and (B), three or four parameters, global or separate fitting, constraints, and the significance of EC50 were determined in Prism. Data presented as mean±SEM. A p<0.05 was considered statistically significant.
(§3) Freshly differentiated BMDMs were cultured in the bone marrow macrophage-differentiation media until 80% confluence. […] Then, the supernatant was collected and centrifuged to remove any residual debris. Measurement of MMP2 and MMP9 activity was performed by running the supernatant (using detergent-free loading buffer) in 1% gelatin gel, followed by staining with Coomassie blue.

MMP2 = assay: Gelatin zymography in BMDMs, MMP2; assay type: cell-based, mouse; conditions: 2.5 μM, 12 h
Procedure: as §2, §3

In the case of `CCCCCCCCC(=CCCCCCCCC(=O)O)[N+](=O)[O-]` [NO2—OA, 10-nitro-octadec-9-enoic acid], the “expression of intercellular adhesion molecule 1 (Icam1)” value ([1]; vs vehicle) is reported as “not statistically significant”, the “expression of MCP1 gene” value ([1]; vs vehicle control) is reported as “significantly decreased” and the “expression of vascular cell adhesion protein 1 (Vcam1) gene” value ([1]; vs vehicle control) is reported as “significantly decreased”. For the same compound, the “protein level of circulating IL6” value (circulating MCP1 and IL6) was “significantly decreased”, the “protein level of circulating MCP1” value (circulating MCP1 and IL6) was “significantly decreased” and the endothelial-dependent macrophage migration (RAW 264.7 cells) was “significantly inhibits”. For the same compound, the “oxLDL-induced expression of Il1b” value [2] was “significantly decreased”, the “oxLDL-induced expression of Mmp9” value [2] was “significantly decreased” and the “PGE2-upregulated MMP9 (gelatin zymography)” value (MMP9) was “significantly diminished”. For the same compound, the “MMP2 activity (gelatin zymography)” value (MMP2) was “no significant changes”.
